Tests used:
MAC 15A cells = assay: In vitro activity against MAC 15A adenocarcinoma (MTT assay); assay type: cell-based; settings: MAC15A colon adenocarcinoma, 96 hours continuous exposure
Procedure: MAC 15A cells were grown in RPMI 1640 medium supplemented with 10% foetal calf serum containing a 1% antibiotic mixture under standard tissue culture conditions and were maintained at 37° C. in a humidified atmosphere of 5% CO2 in air. Cells were harvested from a stock culture in exponential growth phase and plated in 96-well flat-bottomed plates to achieve a final density of 2×10^3 cells per well. After 2 hours incubation medium was replaced with either fresh medium containing 0.5% DMSO (control) or medium containing test compound dissolved in DMSO at a concentrations from 10 mM to 1 nM. Chemosensitivity was assessed using MTT assay by the method of Plumb et al Cancer Research 49 (1989) 4435-4440.
Following 96 hours continuous exposure to drug at 37° C. cells were incubated with fresh drug-free medium immediately prior to addition of MTT solution (5 mg/ml). Medium and MTT were removed after 4 hours and 150 μl of DMSO was added. For each plate the absorbance of the resulting solution was measured at the analytical wavelength 550 nm for formnazan product, using a Labsystem Mutiskan. IC50 values were obtained from growth curves of drug concentration against % survival and are expressed in μm.
In vitro Cytotoxicity of Spacer Limked Anthraquinone Peptide Conjugates on MAC15A Colon Adenocarcinoma

pBR322 DNA = assay: DNA binding assay: fluorescence quenching, displacement of ethidium bromide and Hoechst dye 33258; settings: for QH50: concentration displacing 50% of Hoechst dye 33258 (groove binder) from DNA; for QE50: concentration displacing 50% of ethidium bromide (intercalator) from DNA
From the text: The present inventors have now determined that the introduction of appropriately positioned, conformationally restricted groups into the spacer group of spacer-linked anthraquinone-amino acid or peptide conjugates, allows control of the affinity and mode of binding to DNA. This affinity and mode of binding to DNA is readily determined by fluorescence quenching experiments in which the Q50 values for displacement of ethidium bromide, a DNA intercalator, and for Hoechst 33258 dye, a DNA minor-groove-binder, from which their fluorescent DNA-bound complexes are measured and expressed in μM units of drug concentration (see PCT/GB99/01901 incorporated herein by reference).
The propensity of selected compounds to bind to DNA in the absence of topos was measured in order to identify compounds that would bind weakly, or not at all. […] A […] was used determine binding constants of the compound to DNA by displacement of either ethidium bromide (an intercalator) or Hoechst dye 33258 (a groove binder) which form a DNA-bound fluorescent complex measured by fluorescence spectroscopy.
DNA Binding Assay Protocol
In order to detect the strength and mode of anthraquinone compound binding to DNA the displacement of known DNA binders was detected by measuring the fluorescence of a DNA/fluorescent compound complex. The addition of known concentrations of ethidium bromide, an interchelator, and Hoescht Dye, a groove binder, cause a fluorescent DNA/binder complex that can be detected and the fluorescence quantified. The addition of anthraquinone compounds displaces the interchelators or groove binders, depending on the compound mode of DNA binding, and therefore reduces the fluorescence accordingly. The preferred binding action of compounds can be quantified by determining the reduction in fluorescence resulting from a given concentration of compound. The quantification of a compounds ability to bind to DNA is expressed, as the concentration required to displace 50% of the ethidium bromide or Hocscht Dye, thus reducing the fluorescence by 50%. Therefore, the values produced are QE50 for ethidium, bromide, or QH50 for Hoescht Dye.
Compound: 300, 60, 10 and 10/6 µM (1.66 μM) solution concentrations were prepared for use in the assay to produce a range of compound. Concentrations. 100, 200 and 300 μl of each dilution were used in the assay reaction. This provides a range of concentrations: −30, 20, 10, 6, 4, 2, 1, 0.67, 0.33, 0.17, 0.11, 0.06, 0.00 μM in the assay environment. Intermediate concentrations can be utilised to enhance the accuracy of the displacement concentration determination.
Buffer: 100 mM Tris, NaCI 500 mM. […] Stock solution of 200 μM was prepared in 10× assay buffer. Dilution of DNA therefore provided the correct concentration of assay buffer in the assay cell. 300 μg DNA was used in 3 ml reaction mixture therefore 20 μM DNA concentration. Hoescht Dye 2 μM final concentration, therefore 100 μl of a 60 μM stock solution was added to a 3 ml assay. Ethidium Bromide 2 μM final concentration therefore 100 μl of a 60 μM stock solution was added to a 3 ml assay. Distilled H2O Water was added to produce 3 ml reaction volume. Order of addition: 1. DNA, 2. Water, 3. Drug, 4. Dye
The assay was completed with both Hoescht Dye and Ethidium. Bromide for each compound. The ethidium bromide is a DNA inter-chelator, Hoescht Dye is a minor groove binder. 100, 200 and 30 gμ of the lowest compound dilution was assayed. This procedure was repeated with all further dilution's. This provided a curve of fluorescence intensity decrease with increasing compound concentration. QE50 and QH50 values were determined by extrapolating the concentration of compound at the point where the fluorescence intensity was reduced by 50%. Controls involving compound only and ethidium. bromide or Hoechst Dye without compound were carried out for each experiment. […]

HL-60 Human Leukemia = assay: In vitro cytotoxicity against HL-60 human leukemia; assay type: cell-based
From the text: In vitro Cytotoxicity of Spacer-Linked Anthraquinone-Peptide Conjugates Against HL-60 Human Leukemia

topo I [1] = target: T1, topo I (Homo sapiens, UniProt P11387); assay: Inhibition of topoisomerase I mediated relaxation of pBR322 DNA; assay type: biochemical
T1 sequence (P11387 1-765): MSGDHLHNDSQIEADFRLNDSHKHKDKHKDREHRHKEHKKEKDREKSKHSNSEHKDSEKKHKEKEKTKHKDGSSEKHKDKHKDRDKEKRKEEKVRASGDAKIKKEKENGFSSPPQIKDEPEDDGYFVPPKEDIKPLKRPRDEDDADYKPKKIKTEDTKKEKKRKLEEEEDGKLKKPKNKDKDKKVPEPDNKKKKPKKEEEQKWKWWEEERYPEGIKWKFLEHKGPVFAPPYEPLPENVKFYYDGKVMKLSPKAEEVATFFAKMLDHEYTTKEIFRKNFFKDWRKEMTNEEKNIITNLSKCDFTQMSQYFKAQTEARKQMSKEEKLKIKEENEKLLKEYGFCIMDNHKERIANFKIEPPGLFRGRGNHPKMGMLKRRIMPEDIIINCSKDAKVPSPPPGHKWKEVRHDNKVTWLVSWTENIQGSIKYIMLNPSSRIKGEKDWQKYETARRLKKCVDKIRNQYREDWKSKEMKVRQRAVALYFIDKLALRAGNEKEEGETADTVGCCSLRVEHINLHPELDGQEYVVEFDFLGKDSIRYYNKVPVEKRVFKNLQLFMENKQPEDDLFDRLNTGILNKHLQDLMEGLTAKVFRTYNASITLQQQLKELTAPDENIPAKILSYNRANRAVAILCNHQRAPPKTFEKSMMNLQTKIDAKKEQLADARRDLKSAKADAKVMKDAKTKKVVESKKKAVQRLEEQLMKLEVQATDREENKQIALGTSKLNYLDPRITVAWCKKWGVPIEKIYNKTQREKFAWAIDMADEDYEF

topo I [2] = target: T1, topo I; assay: Stimulation of topoisomerase I mediated cleavage of pBR322 DNA; assay type: biochemical; settings: for nicked plasmid DNA (topo I mediated cleavage): at 25 μM
From the text: To determine the effect of the newly synthesised compounds on the catalytic activity of topo I and II (α and β), specific tests measuring relaxation, decatenation and enzyme-mediated cleavage of DNA were employed using purified human topos.
Simulation of Topoisomerase I Mediated Cleavage of pBR322DNA by Spacer-Linked Anthraquinone-Peptide Conjugates

topo I [3] = target: T1, topo I; assay: Immunoband depletion of topoisomerase I in HL-60 cells; assay type: cell-based; set-up: endogenous in cells; host or cells: HL-60 human leukemia cells
Procedure: Immunoband Depletion of Topoisomerase I
The data provides good evidence for ternary complex (drug-DNA-enzyme) formation in viable whole cells.
The method was adapted from Boege and Andersen [Selected novel flavones inhibit the DNA binding or the DNA religation step of cukaryotic topoisomerase I, F. Boege, T. Straub, A. Kehr, C. Boesenberg, K. Christiansen, A. Andersen, F. Jakob, J, Kohrle, J. Biol. Chem., 271, 2262, (1996)]; briefly, 10^6 HL-60 cells were cultivated for 1 h with and without drugs. Reactions were terminated by sedimentation of the cells (1000×g, 5 min, 4° C.) and subsequent lysis in PBS/NP40, RIPA buffer containing pepstatin and leupeptin. Samples were subjected to SDS-polyacrylamide (8%) gel electrophoresis and proteins that had entered the gel were electrophoretically transferred to nitro-cellulose sheets by the semi-dry method. Immunstaining of immobilised proteins was carried out using a polyclonal Ab of human topo I [topogen], and subsequently anti-human Ig biotinylated whole Ab (sheep)[Amersham], streptavidin horse-radish peroxidase and the ECL system [Amersham].

With `O=C1c2ccccc2C(=O)c2c1cccc2N1CCNCC1` the melting point was 190 °C.
Compound `Nc1ccc(Nc2cccc3c2C(=O)c2ccccc2C3=O)cc1` has a melting point of 175 to 182 °C.
`CN(CCO)c1cccc2c1C(=O)c1c(cccc1N(C)CCO)C2=O` showed a melting point of 168 to 178 °C.
Work on “1-(2-β-alanylpiperazinyl)anthracene-9,10-dione trifluoroacetate salt [Example 15]” yielded an IC50 (MAC 15A cells) of 20 µM, a QH50 (pBR322 DNA) of 1.6 µM and a QE50 (pBR322 DNA) of 11.4 µM.
For `O=C(O)C(F)(F)F.O=C1c2ccccc2C(=O)c2c1cccc2N1CCNCC1` [Example 4b, 1-(1-piperazinyl)anthracene-9,10-dione trifluoroacetate salt], the QH50 (pBR322 DNA) was 1.7 µM, the QE50 (pBR322 DNA) was 10.5 µM and the melting point was 170 °C.
For `C[C@H](N)C(=O)N1CCN(c2cccc3c2C(=O)c2ccccc2C3=O)CC1.O=C(O)C(F)(F)F` [Example 17, 1-(1-L-alanylpiperazinyl)anthracene-9,10-dione trifluoroacetate salt], the IC50 (MAC 15A cells) was 25 µM, the IC50 (HL-60 Human Leukemia) was 10.7 µM and the “DNA-topoisomerase activity: inhibition of topo I relaxation” value (“DNA-topoisomerase activity: inhibition” below) (topo I [1]; at 25 μM) was “COMPLETE inhibition at 25 μM”. The “nicked plasmid DNA (topo I mediated cleavage)” value (from here on “nicked plasmid DNA”) (topo I [2]) was 10% nicked plasmid DNA at 25 μM.
In the case of `N[C@@H](Cc1ccccc1)C(=O)N1CCN(c2cccc3c2C(=O)c2ccccc2C3=O)CC1.O=C(O)C(F)(F)F` [Example 21, 1-(1-L-phenylalanylpiperazinyl)anthracene-9,10-dione trifluoroacetate salt], the “DNA-topoisomerase activity: inhibition” value (topo I [1]; at 10 μM) is reported as “COMPLETE inhibition at 10 μM” and the “DNA-topoisomerase activity: topo I mediated cleavage” value (topo I [2]; between 10-100 μM) is reported as “NO CLEAVAGE between 10-100 μM”.
With `N[C@@H](Cc1ccccc1)C(=O)NC1CCC(Nc2cccc3c2C(=O)c2ccccc2C3=O)CC1.O=C(O)C(F)(F)F` (stereo partly drawn) [Example 26, (2S)-2-amino-N-{4-[(9,10-dioxoanthryl)amino]cyclohexyl}-3-phenylpropanamide trifluoroacetate salt] the IC50 (MAC 15A cells) was 3.5 µM, the QH50 (pBR322 DNA) was 2.3 µM and the QE50 (pBR322 DNA) was 6.5 µM. The “DNA-topoisomerase activity: inhibition” value (topo I [1]; between 25-100 μM) was “NO inhibition between 25-100 μM”, the “nicked plasmid DNA” value (topo I [2]) was 45% nicked plasmid DNA at 25 μM and the “intensity of the (100 kDa) topo I band” value (topo I [3]; 1 h with drug, in comparison with camptothecin) was “Reductions in the intensity of the (100 kDa) topo I band were observed”. The “extent of immunoband depletion” value (topo I [3]; above 200 μM) was “comparable to the effect of camptothecin at 50 μM”.
Compound `O=C1c2c(O)ccc(O)c2C(=O)c2c(NCCNCCO)ccc(NCCNCCO)c21` [Mitoxantrone, reference compound] has a QH50 (pBR322 DNA) of 1.0 µM and a QE50 (pBR322 DNA) of 0.35 µM.
With “(2R)-2-amino-N-{4-[(9,10-dioxoanthryl)amino]cyclohexyl}-3-phenylpropanamide trifluoroacetate salt [Example 28]” the IC50 (MAC 15A cells) was 8 µM, the “DNA-topoisomerase activity: inhibition” value (topo I [1]; at 50 μM) was “PARTIAL inhibition at 50 μM” and the “nicked plasmid DNA” value (topo I [2]) was 20% nicked plasmid DNA at 25 μM.

— patent publication US20030130272A1, “Anthracene derivatives as anti-cancer agents” (priority 1999, published 2003)
